The results in this text go back to patent publication US11512069B2, “TLR7/8 antagonists and uses thereof” (Merck Patent GmbH, priority 2016, dated 2022).

This assay addresses T1, TLR7 (Homo sapiens, UniProt Q9NYK1).
T1 construct: expressed in transfected cells; host or cells: HEK cells carrying TLR7 and an NF-kB reporter read with Steady-Glo
T1 sequence (Q9NYK1 27-1049): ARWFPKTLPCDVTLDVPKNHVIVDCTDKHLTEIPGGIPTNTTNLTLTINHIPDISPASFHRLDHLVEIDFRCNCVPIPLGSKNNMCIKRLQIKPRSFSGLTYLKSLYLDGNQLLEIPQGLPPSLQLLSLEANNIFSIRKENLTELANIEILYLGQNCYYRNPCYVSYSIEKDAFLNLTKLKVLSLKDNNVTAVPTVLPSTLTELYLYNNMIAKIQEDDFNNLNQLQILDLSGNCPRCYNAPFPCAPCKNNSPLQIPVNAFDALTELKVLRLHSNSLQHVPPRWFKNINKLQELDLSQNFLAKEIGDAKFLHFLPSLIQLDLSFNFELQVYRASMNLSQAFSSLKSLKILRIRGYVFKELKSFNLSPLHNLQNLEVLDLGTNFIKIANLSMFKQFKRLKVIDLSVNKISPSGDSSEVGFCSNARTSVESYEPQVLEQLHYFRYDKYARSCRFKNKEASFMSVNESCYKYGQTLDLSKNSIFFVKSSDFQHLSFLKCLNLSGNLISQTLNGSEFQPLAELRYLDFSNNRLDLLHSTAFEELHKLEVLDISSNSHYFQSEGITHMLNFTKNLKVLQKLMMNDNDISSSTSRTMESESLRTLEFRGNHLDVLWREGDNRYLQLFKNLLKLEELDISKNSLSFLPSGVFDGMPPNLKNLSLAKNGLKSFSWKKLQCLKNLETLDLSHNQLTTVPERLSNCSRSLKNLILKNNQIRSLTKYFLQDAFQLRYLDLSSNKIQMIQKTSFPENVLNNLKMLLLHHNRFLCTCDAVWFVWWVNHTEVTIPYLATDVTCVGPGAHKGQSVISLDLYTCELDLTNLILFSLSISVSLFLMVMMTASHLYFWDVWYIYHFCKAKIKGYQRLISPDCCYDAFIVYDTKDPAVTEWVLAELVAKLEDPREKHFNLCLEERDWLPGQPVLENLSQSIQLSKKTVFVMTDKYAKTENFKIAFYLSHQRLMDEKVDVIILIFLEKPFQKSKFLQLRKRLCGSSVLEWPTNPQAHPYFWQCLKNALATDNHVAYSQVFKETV
Briefly: HEK Cell Assay (TLR7/NFKb HEK reporter cells, Steady-Glo). The format is cell-based. The following applies: compound 30 min, then R*48 agonist 5 hours, Steady-Glo readout, read-out: Potency. A digest of the protocol: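 TLR7/NF-κB HEK reporter cells cultured 24 h, then pre-incubated 30 min with compound before adding R*48 agonist. Luciferase read by Steady-Glo luminescence after 5 h.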
With `C[C@H]1C[C@@H](N)C[C@H](c2ccc(C#N)c3nccnc23)C1` [Compound 123, 8-[(1R,3R,5R)-3-amino-5-methylcyclohexyl]quinoxaline-5-carbonitrile], the IC50 is less than 1 µM.
Under `C[C@@H]1C[C@H](N)C[C@@H](c2ccc(C#N)c3nccnc23)C1` [Compound 124, 8-((1S,3S,5S)-3-amino-5-methylcyclohexyl)quinoxaline-5-carbonitrile] stands greater than 20 µM; under `CC(C)[C@H](O)C(=O)N[C@@H]1C[C@H](C)C[C@H](c2ccc(C#N)c3nccnc23)C1` [Compound 125, (S)—N-((1R,3S,5R)-3-(8-cyanoquinoxalin-5-yl)-5-methylcyclohexyl)-2-hydroxy-3-methylbutanamide], less than 1 µM; under `CC(C)[C@H](O)C(=O)N[C@H]1C[C@@H](C)C[C@@H](c2ccc(C#N)c3nccnc23)C1` [Compound 126, (S)—N-((1S,3R,5S)-3-(8-cyanoquinoxalin-5-yl)-5-methylcyclohexyl)-2-hydroxy-3-methylbutanamide], 1 to 20 µM.
With `CC(C)[C@H](O)C(=O)N[C@@H]1C[C@H](C)C[C@@H](c2ccc(C#N)c3nccnc23)C1` [Compound 127, (S)—N-((1R,3R,5R)-3-(8-cyanoquinoxalin-5-yl)-5-methylcyclohexyl)-2-hydroxy-3-methylbutanamide], the IC50 was greater than 20 µM.
Under `CC(C)[C@H](O)C(=O)N[C@H]1C[C@@H](C)C[C@H](c2ccc(C#N)c3nccnc23)C1` [Compound 128, (S)—N-((1S,3S,5S)-3-(8-cyanoquinoxalin-5-yl)-5-methylcyclohexyl)-2-hydroxy-3-methylbutanamide] stands 1 to 20 µM; under `C[C@H]1C[C@@H](N)C[C@@H](c2ccc(C(F)(F)F)c3ncccc23)C1` [Compound 135, (1R,3R,5S)-3-methyl-5-(8-(trifluoromethyl)quinolin-5-yl)cyclohexanamine], 1 to 20 µM.
Under `C[C@@H]1C[C@H](N)C[C@H](c2ccc(C(F)(F)F)c3ncccc23)C1` [Compound 136, (1S,3S,5R)-3-methyl-5-(8-(trifluoromethyl)quinolin-5-yl)cyclohexanamine] stands less than 1 µM; under `C[C@H]1C[C@@H](N)C[C@H](c2ccc(C(F)(F)F)c3ncccc23)C1` [Compound 137, (1R,3R,5R)-3-methyl-5-(8-(trifluoromethyl)quinolin-5-yl)cyclohexanamine], 1 to 20 µM; under `C[C@@H]1C[C@H](N)C[C@@H](c2ccc(C(F)(F)F)c3ncccc23)C1` [Compound 138, (1S,3S,5S)-3-methyl-5-(8-(trifluoromethyl)quinolin-5-yl)cyclohexanamine], less than 1 µM.
As for `C[C@H]1C[C@@H](N)C[C@@H](c2ccc(C(F)(F)F)c3nccnc23)C1` [Compound 139, (1R,3R,5S)-3-methyl-5-(8-(trifluoromethyl)quinoxalin-5-yl)cyclohexanamine], the IC50 is less than 1 µM.
`C[C@H]1C[C@@H](N)C[C@H](c2ccc(C(F)(F)F)c3nccnc23)C1` [Compound 140, (1R,3R,5R)-3-methyl-5-(8-(trifluoromethyl)quinoxalin-5-yl)cyclohexanamine]: the IC50 lay within 1 to 20 µM.
Regarding `C[C@@H]1C[C@H](N)C[C@@H](c2ccc(C(F)(F)F)c3nccnc23)C1` [Compound 141, (1S,3S,5S)-3-methyl-5-(8-(trifluoromethyl)quinoxalin-5-yl)cyclohexanamine], the IC50 was less than 1 µM.
`C[C@@H]1C[C@H](N)C[C@H](c2ccc(C(F)(F)F)c3nccnc23)C1` [Compound 142, (1S,3S,5R)-3-methyl-5-(8-(trifluoromethyl)quinoxalin-5-yl)cyclohexanamine]: the IC50 is less than 1 µM.
For `COCCN[C@@H]1C[C@H](C)C[C@H](c2ccc(C(F)(F)F)c3nccnc23)C1` [Compound 147, (1R,3R,5S)—N-(2-methoxyethyl)-3-methyl-5-(8-(trifluoromethyl)quinoxalin-5-yl)cyclohexanamine] the value was greater than 20 µM; for `COCCN[C@H]1C[C@@H](C)C[C@@H](c2ccc(C(F)(F)F)c3nccnc23)C1` [Compound 148, (1S,3S,5R)—N-(2-methoxyethyl)-3-methyl-5-(8-(trifluoromethyl)quinoxalin-5-yl)cyclohexanamine], 1 to 20 µM; for `COCCN[C@@H]1C[C@H](C)C[C@@H](c2ccc(C(F)(F)F)c3nccnc23)C1` [Compound 149, (1R,3R,5R)—N-(2-methoxyethyl)-3-methyl-5-(8-(trifluoromethyl)quinoxalin-5-yl)cyclohexanamine], 1 to 20 µM.
Under `COCCN[C@H]1C[C@@H](C)C[C@H](c2ccc(C(F)(F)F)c3nccnc23)C1` [Compound 150, (1S,3S,5S)—N-(2-methoxyethyl)-3-methyl-5-(8-(trifluoromethyl)quinoxalin-5-yl)cyclohexanamine] stands greater than 20 µM; under `COCCN[C@@H]1C[C@H](C)C[C@H](c2ccc(C(F)(F)F)c3ncccc23)C1` [Compound 152, (1R,3R,5S)—N-(2-methoxyethyl)-3-methyl-5-(8-(trifluoromethyl)quinolin-5-yl)cyclohexanamine], greater than 20 µM; under `COCCN[C@H]1C[C@@H](C)C[C@@H](c2ccc(C(F)(F)F)c3ncccc23)C1` [Compound 153, (1S,3S,5R)—N-(2-methoxyethyl)-3-methyl-5-(8-(trifluoromethyl)quinolin-5-yl)cyclohexanamine], 1 to 20 µM.
`C[C@H]1C[C@@H](NC(=O)[C@@H](O)C(C)(C)C)C[C@@H](c2ccc(C(F)(F)F)c3nccnc23)C1` [Compound 154, (S)-2-hydroxy-3,3-dimethyl-N-((1R,3R,5S)-3-methyl-5-(8-(trifluoromethyl)quinoxalin-5-yl)cyclohexyl)butanamide]: the IC50 was less than 1 µM.
For `C[C@@H]1C[C@H](NC(=O)[C@@H](O)C(C)(C)C)C[C@H](c2ccc(C(F)(F)F)c3nccnc23)C1` [Compound 155, (S)-2-hydroxy-3,3-dimethyl-N-((1S,3S,5R)-3-methyl-5-(8-(trifluoromethyl)quinoxalin-5-yl)cyclohexyl)butanamide] the value was 1 to 20 µM.
On to `COCCN[C@@H]1C[C@H](C)C[C@H](c2ccc(F)c3ncccc23)C1` [Compound 160, (cis-1,3,5)-3-(8-fluoroquinolin-5-yl)-N-(2-methoxyethyl)-5-methylcyclohexan-1-amine], for which the IC50 is greater than 20 µM.
